Assay results reported in patent publication US9556229B2, “Modification of peptides using a bis(thioether)arylbridge approach” (priority 2012, dated 2017).
Starred links: 1 amine or outer side, 2 acyl side, 3 side chain; linkers in the order of their positions; H or OH if unused. Positions of bridges follow the written chain, without caps; N, C: chain ends. Non-standard residues stand in square brackets, D forms with d. Residues, ends and D or L forms follow the SMILES beside them. ξ: configuration not given here. *: point of attachment. X2 = Cc1cn([C@H]2C[C@H](n3cc(CCCC(=O)*)nn3)[C@@H](CO)O2)c(=O)[nH]c1=O; Phe(F5) = N[C@@H](Cc1c(F)c(F)c(F)c(F)c1F)C(=O)O; 1Nal = N[C@@H](Cc1cccc2ccccc12)C(=O)O; mXylylene = c1cc(C[*:1])cc(C[*:2])c1; oXylylene = c1ccc(C[*:2])c(C[*:1])c1; Cha = N[C@@H](CC1CCCCC1)C(=O)O; Nicotinoyl = O=C(c1cccnc1)*; ξDisc = O=C(O)C1NCc2ccccc21

Assays:
HCT116/SCID = experiment: Mouse subcutaneous engraftment model (HCT116/SCID); assay type: in vivo
From the text: Based on analysis of p53/MDM2 and PMI-N8A/MDM2 crystal structures we placed various combinations of (L)- and (D)Cys residues in specific positions of PMI sequence considering the importance of particular amino acids for peptide bioactivity (see, e.g., Tables 1 and 2. Particular combinations were in turn tAB-ed using selected bis-halogeno-aryl compounds (see, e.g., FIG. 1) that fit into spatial arrangements/dimensions available, based on computer aided molecular modeling. Since ^DPMI-a presumably lack cell permeating properties, in addition we engineered several analogues as a cell permeating compounds containing multiple Arg residues simultaneously employing combination of D- and unusual amino acids to further enhance stability and binding properties of the peptide. Analogues were subsequently tested in vitro using HCT116 colorectal cancer cells and PrestoBlue™ assay (Invitrogen). […] Selected analogues were also tested in vivo using mouse subcutaneous engraftment model (HCT116/SCID).

[1] = tested on: HCT116 colorectal cancer cells

Row | EC50 [1] [µM] | SMILES | tumor growth delay (HCT116/SCID) [days]
1 | 11.2 ± 1.2 | N=C(N)NCCC[C@@H](N)C(=O)N[C@@H](CCCNC(=N)N)C(=O)N[C@@H](Cc1c(F)c(F)c(F)c(F)c1F)C(=O)N[C@@H](CCCNC(=N)N)C(=O)N[C@@H]1CSCc2ccccc2CSC[C@@H](C(=O)N[C@H](CCCNC(=N)N)C(=O)N[C@@H](CC2CCCCC2)C(=O)N[C@@H](CCCNC(=N)N)C(=O)N2Cc3ccccc3C2C(N)=O)NC(=O)[C@H](Cc2cccc3ccccc23)NC(=O)[C@H](Cc2ccc(O)cc2)NC1=O (stereo partly drawn) [ArB14Co, Arg-Arg-PhF-Arg-Cys-Tyr-Na1-Cys-Arg-Cha-Arg-DISC] (H-[dR]R[Phe(F5)]R[dC]Y[1Nal]C[dR][Cha]R[ξDisc]-NH2; linker 5-8 via oXylylene) | ~14.6
2 | 249 | CC(C)C[C@H](NC(=O)[C@@H](C)NC(=O)[C@@H]1CSCc2ccccc2CSC[C@@H](NC(=O)[C@H](C)NC(=O)[C@H](Cc2ccccc2)NC(=O)[C@H](CO)NC(=O)[C@@H](N)[C@@H](C)O)C(=O)N[C@@H](Cc2ccc(O)cc2)C(=O)N[C@@H](Cc2c[nH]c3ccccc23)C(=O)N1)C(=O)N[C@@H](CO)C(=O)N1CCC[C@H]1C(N)=O [ArB14o] | –
3 | 189 | CC(C)C[C@H](NC(=O)[C@H](CCCNC(=N)N)NC(=O)[C@@H]1CSCc2ccccc2CSC[C@H](NC(=O)[C@H](Cc2ccccc2)NC(=O)[C@H](CCCNC(=N)N)NC(=O)c2cccnc2)C(=O)N[C@@H](CCCNC(=N)N)C(=O)N[C@@H](Cc2ccc(O)cc2)C(=O)N[C@@H](Cc2c[nH]c3ccccc23)C(=O)N1)C(=O)N[C@@H](CCCNC(=N)N)C(=O)N1CCC[C@H]1C(N)=O [ArB15FNico] (Nicotinoyl-RFCRYWCRLRP-NH2; linker 3-7 via oXylylene) | –
4 | 126 | CC(C)C[C@H](NC(=O)[C@H](CCCNC(=N)N)NC(=O)[C@@H]1CSCc2cccc(c2)CSC[C@H](NC(=O)[C@H](Cc2ccccc2)NC(=O)[C@H](CCCNC(=N)N)NC(=O)c2cccnc2)C(=O)N[C@@H](CCCNC(=N)N)C(=O)N[C@@H](Cc2ccc(O)cc2)C(=O)N[C@@H](Cc2c[nH]c3ccccc23)C(=O)N1)C(=O)N[C@@H](CCCNC(=N)N)C(=O)N1CCC[C@H]1C(N)=O [ArB15GNicm] (Nicotinoyl-RFCRYWCRLRP-NH2; linker 3-7 via mXylylene) | –
5 | 142 | C[C@@H](O)[C@H](N)C(=O)N[C@@H](CO)C(=O)N[C@@H](Cc1ccccc1)C(=O)N[C@@H](CCCNC(=N)N)C(=O)N[C@@H](CCCNC(=N)N)C(=O)N[C@@H](Cc1ccc(O)cc1)C(=O)N[C@H]1CS(=O)(=O)Cc2cccc(c2)CS(=O)(=O)C[C@@H](C(=O)N[C@@H](CO)C(=O)N2CCC[C@H]2C(N)=O)NC(=O)[C@H](CCCNC(=N)N)NC(=O)[C@H](CCCNC(=N)N)NC1=O [ArB14Dmx] | –
6 | 118 | C[C@@H](O)[C@H](N)C(=O)N[C@@H](CO)C(=O)N[C@@H](Cc1ccccc1)C(=O)N[C@@H](CCCNC(=N)N)C(=O)N[C@@H](CCCNC(=N)N)C(=O)N[C@@H](Cc1ccc(O)cc1)C(=O)N[C@H]1CSCc2cccc(c2)CSC[C@@H](C(=O)N[C@@H](CO)C(=O)N2CCC[C@H]2C(N)=O)NC(=O)[C@H](CCCNC(=N)N)NC(=O)[C@H](CCCNC(=N)N)NC1=O [ArB14Dm] | –
7 | 52.2 | CC(C)C[C@H](NC(=O)[C@H](CCCNC(=N)N)NC(=O)[C@@H]1CSCc2cccc(c2)CSC[C@H](NC(=O)[C@H](Cc2ccccc2)NC(=O)[C@@H](N)CCCNC(=N)N)C(=O)N[C@@H](CCCNC(=N)N)C(=O)N[C@@H](Cc2ccc(O)cc2)C(=O)N[C@@H](Cc2c[nH]c3ccccc23)C(=O)N1)C(=O)N[C@@H](CCCNC(=N)N)C(=O)N1CCC[C@H]1C(N)=O [ArB15Gm] (H-RFCRYWCRLRP-NH2; linker 3-7 via mXylylene; N-terminus assumed) | –

Row | SMILES | EC50 [1] [µM] | tumor growth delay (HCT116/SCID) [days]
8 | Cc1cn([C@H]2C[C@H](n3cc(CCCC(=O)N[C@H](CCCNC(=N)N)C(=O)N[C@@H](CCCNC(=N)N)C(=O)N[C@@H](Cc4c(F)c(F)c(F)c(F)c4F)C(=O)N[C@@H](CCCNC(=N)N)C(=O)N[C@@H]4CSCc5ccccc5CSC[C@@H](C(=O)N[C@H](CCCNC(=N)N)C(=O)N[C@@H](CC5CCCCC5)C(=O)N[C@@H](CCCNC(=N)N)C(=O)N5Cc6ccccc6C5C(N)=O)NC(=O)[C@H](Cc5cccc6ccccc56)NC(=O)[C@H](Cc5ccc(O)cc5)NC4=O)nn3)[C@@H](CO)O2)c(=O)[nH]c1=O (stereo partly drawn) [ArB14Co-AZT, AZT-Arg-Arg-PhF-Arg-Cys-Tyr-Na1-Cys-Arg-Cha-Arg-DISC] (X2-[dR]R[Phe(F5)]R[dC]Y[1Nal]C[dR][Cha]R[ξDisc]-NH2; linker 5-8 via oXylylene; N-terminus assumed) | 30.2 ± 2.5 | –
